{"source": "paper PMC10830684", "about": "“Effect of Oregon grape root extracts on P-glycoprotein mediated transport in in vitro cell lines” (Journal of Pharmacy & Pharmaceutical Sciences, 2024)", "key": {"[1]": {"design": "method as in PMID 16086103", "conditions": "renal-transplant patients; co-administration of 200 mg berberine three times a day for 12 days; cited from earlier work"}, "[2]": {"biological_target": "T1, P-glycoprotein (MDCKII-MDR1 cells) (Homo sapiens, UniProt P08183)", "T1 sequence (P08183 whole entry)": "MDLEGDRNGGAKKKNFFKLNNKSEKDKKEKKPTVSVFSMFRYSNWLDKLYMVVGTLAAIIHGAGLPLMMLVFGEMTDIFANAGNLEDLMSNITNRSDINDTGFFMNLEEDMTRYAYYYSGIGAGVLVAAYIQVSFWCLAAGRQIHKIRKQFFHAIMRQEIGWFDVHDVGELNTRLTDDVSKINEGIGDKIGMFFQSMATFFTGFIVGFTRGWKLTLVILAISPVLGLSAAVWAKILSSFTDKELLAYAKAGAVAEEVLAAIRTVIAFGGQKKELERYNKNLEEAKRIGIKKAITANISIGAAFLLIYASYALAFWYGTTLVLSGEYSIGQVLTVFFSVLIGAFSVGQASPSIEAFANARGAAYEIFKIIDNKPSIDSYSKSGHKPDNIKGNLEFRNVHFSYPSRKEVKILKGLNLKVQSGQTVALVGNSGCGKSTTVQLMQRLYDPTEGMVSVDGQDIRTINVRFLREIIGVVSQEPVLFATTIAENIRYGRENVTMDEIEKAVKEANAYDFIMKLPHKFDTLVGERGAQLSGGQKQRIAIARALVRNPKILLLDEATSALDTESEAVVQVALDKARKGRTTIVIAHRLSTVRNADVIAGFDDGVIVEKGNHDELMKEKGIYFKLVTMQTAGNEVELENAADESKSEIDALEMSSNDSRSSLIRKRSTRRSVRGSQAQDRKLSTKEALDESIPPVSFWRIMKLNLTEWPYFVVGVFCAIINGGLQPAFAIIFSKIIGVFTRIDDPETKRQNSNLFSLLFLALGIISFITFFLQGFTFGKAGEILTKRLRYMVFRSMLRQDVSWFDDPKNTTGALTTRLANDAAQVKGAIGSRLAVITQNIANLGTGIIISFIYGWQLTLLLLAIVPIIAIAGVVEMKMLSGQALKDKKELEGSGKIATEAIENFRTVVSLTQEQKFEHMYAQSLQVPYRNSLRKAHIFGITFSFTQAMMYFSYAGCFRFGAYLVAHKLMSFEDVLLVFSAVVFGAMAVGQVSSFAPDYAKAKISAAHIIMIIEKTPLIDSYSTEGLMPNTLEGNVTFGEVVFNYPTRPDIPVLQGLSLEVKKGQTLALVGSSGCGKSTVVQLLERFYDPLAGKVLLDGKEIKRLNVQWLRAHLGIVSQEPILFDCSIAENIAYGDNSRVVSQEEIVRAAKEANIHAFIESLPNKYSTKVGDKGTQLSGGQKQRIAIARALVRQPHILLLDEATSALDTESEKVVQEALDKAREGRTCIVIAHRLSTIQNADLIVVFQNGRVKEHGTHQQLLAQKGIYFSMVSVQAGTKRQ", "experiment": "Transepithelial transport of berberine and berbamine across MDCKII-MDR1 cells", "type": "in vitro ADME", "design": "expressed in transfected cells; host or cells: MDCKII-MDR1 (Madin-Darby canine kidney II cells overexpressing MDR1)", "conditions": "100 µM", "experimental": "Transport of ^3H-CsA and ^3H-digoxin (0.5 µM and 1.0 µCi), MDR1 substrates, were performed using transport buffer consisting of HBSS with 10 mM HEPES and 25 mM D-glucose at a pH of 6.8 for the apical (A) compartment and 7.4 for the basolateral (B) compartment. Experiments were performed at 37°C, 5% CO2, and 95% relative humidity. Cells in the Transwell® inserts were washed 3 times with a transport buffer and allowed to equilibrate for 30 min prior to the addition of test compounds. […] To evaluate the efflux mechanism involved with berberine and berbamine, 100 µM of berberine and berbamine were placed in the donor chamber and 100 µL samples were collected in the receiver chamber at 0, 0.5, 1.0, 1.5, 2.0, 2.5, and 3.0 h and analyzed by HPLC. Each experiment was performed in duplicate and repeated for each condition tested. For experiments performed in “non-sink” conditions, 100 µL aliquots were taken from the donor and receiver chambers at the beginning and from the receiver chamber at 0.5, 1.0, 1.5, 2.0, 2.5, and 3.0 h. An equal volume of 100 µL was replaced in the chamber at each sample time point. […] A 100 µL sample was taken from the donor chamber at 3 h in order to calculate the mass balance of radioactivity to determine if adsorption to the cell culture transport apparatus had occurred. Each sample was placed in 0.9 mL of scintillation fluor (Cytoscint ES, ICN, Cosa Mesa, CA, USA) and read on a Beckman LS 6500 (Palo Alto, CA, USA) scintillation counter for ^3H activity. […]\n(§1) The apparent permeability (Papp) was calculated using the following equation [40]: Papp=dQ/dt×1/A×C0\nWhere A is the surface area of the monolayer (4.71 cm^2) and C0 is the initial concentration of radiolabeled probe substrate in the donor compartment. dQ/dt is the slope of the steady-state rate constant. The efflux ratio was determined by dividing the Papp in the B to A direction by the Papp in the A to B direction: Efflux ratio=PappB to A/PappA to B […]"}, "[3]": {"system": "P-gp", "design": "method as in PMID 12434406", "conditions": "Caco-2 cells; seven day pretreatment; 30 µM; cited from earlier work"}, "[4]": {"system": "MDCKII wild-type cells", "experiment": "Effect on 3H-CsA and 3H-digoxin transport in MDCKII wild-type cells", "conditions": "MDCKII-WT; for Papp (B to A) of 3H-CsA: 0.5 µM 3H-CsA; for Papp (B to A) of 3H-digoxin: 0.5 µM 3H-digoxin"}, "[5]": {"biological_target": "T1, P-glycoprotein (MDCKII-MDR1 cells)", "experiment": "Effect on 3H-CsA and 3H-digoxin transport in MDCKII-MDR1 cells", "conditions": "for Papp (B to A) of 3H-CsA: 0.5 µM 3H-CsA; for Papp (B to A) of 3H-digoxin: 0.5 µM 3H-digoxin"}, "[6]": {"system": "Caco-2 cells", "experiment": "Transepithelial transport of berberine and berbamine across Caco-2 cells", "type": "in vitro ADME, human", "conditions": "100 µM; Caco-2 cells", "experimental": "Transport of ^3H-CsA and ^3H-digoxin (0.5 µM and 1.0 µCi), MDR1 substrates, were performed using transport buffer consisting of HBSS with 10 mM HEPES and 25 mM D-glucose at a pH of 6.8 for the apical (A) compartment and 7.4 for the basolateral (B) compartment. Experiments were performed at 37°C, 5% CO2, and 95% relative humidity. Cells in the Transwell® inserts were washed 3 times with a transport buffer and allowed to equilibrate for 30 min prior to the addition of test compounds. […] To evaluate the efflux mechanism involved with berberine and berbamine, 100 µM of berberine and berbamine were placed in the donor chamber and 100 µL samples were collected in the receiver chamber at 0, 0.5, 1.0, 1.5, 2.0, 2.5, and 3.0 h and analyzed by HPLC. Each experiment was performed in duplicate and repeated for each condition tested. For experiments performed in “non-sink” conditions, 100 µL aliquots were taken from the donor and receiver chambers at the beginning and from the receiver chamber at 0.5, 1.0, 1.5, 2.0, 2.5, and 3.0 h. An equal volume of 100 µL was replaced in the chamber at each sample time point. “Non-sink” conditions were performed when less than 10% of compound is transported across cells during the transport experiment such that a concentration gradient was always present. For the “sink” condition experiments, the entire receiver volume was replaced at each time interval and a 100 µL aliquot was taken from the receiver volume for scintillation counting. A 100 µL sample was taken from the donor chamber at 3 h in order to calculate the mass balance of radioactivity to determine if adsorption to the cell culture transport apparatus had occurred. Each sample was placed in 0.9 mL of scintillation fluor (Cytoscint ES, ICN, Cosa Mesa, CA, USA) and read on a Beckman LS 6500 (Palo Alto, CA, USA) scintillation counter for ^3H activity. For berberine and berbamine analysis, 100 µL aliquot was assayed by HPLC.\nas §1\nWhere A is the surface area of the monolayer (4.71 cm^2) and C0 is the initial concentration of radiolabeled probe substrate in the donor compartment. dQ/dt is the slope of the steady-state rate constant. The efflux ratio was determined by dividing the Papp in the B to A direction by the Papp in the A to B direction: Efflux ratio=PappB to A/PappA to B\nA Waters 2690 separations module with a Model 996 photodiode array detector with the Millennium 32 Chromatograph Manager version 3.0 software (Waters Corporation, Milford, MA, USA) was used for HPLC analysis. […] All the standards and samples were filtered (0.2 µm) prior to injection. Ten µL was injected onto a 250 × 4.6 mm i.d., […], Zorbax Eclipse X DB-C18 Column (Agilent Technologies, Palo Alto, CA, USA) with a 3.9 × 20 mm i.d. Symmetry® C18 guard column, with an isocratic mobile phase of 32:68 acetonitrile:buffer. The buffer consisted of 30 mM ammonium acetate and 14 mM TEA and was adjusted to pH 4.85 with acetic acid. A flow rate of 1 mL/min and UV absorption at 254 nm was used for analysis. The retention time of berberine and berbamine was 7.84 min and 3.03 min, respectively. The cumulative amount of transport was determined using the corresponding peak area for berberine or berbamine. The cumulative amount of berberine or berbamine transported across the cell membrane was evaluated as a functionof time. The Papp was calculated by the following equation: […]"}, "[7]": {"biological_target": "P-glycoprotein (Homo sapiens, UniProt P08183)", "sequence (P08183 whole entry)": "as above", "experiment": "Effect on 3H-CsA and 3H-digoxin transport in Caco-2 cells", "conditions": "for Papp (B to A) of 3H-CsA / Papp (B to A) of 3H-digoxin: Caco-2; for Papp (B to A) of 3H-CsA: 0.5 µM 3H-CsA"}}, "data": [{"smiles": "COc1ccc2cc3[n+](cc2c1OC)CCc1cc2c(cc1-3)OCO2.[Cl-]", "note": "[Berberine, Berberine chloride]", "values": [{"measurement": "increase of mean area under the curve of CsA", "setting": "[1]", "result": 34.5, "unit": "%"}, {"measurement": "Papp A to B direction", "setting": "[2]", "result": "1.3e-06", "unit": "cm/s"}, {"measurement": "Papp B to A direction", "setting": "[2]", "result": "1.56e-05", "unit": "cm/s"}, {"measurement": "fold increase of Papp B to A compared with A to B", "setting": "[2]", "result": "approximately 12 fold"}, {"measurement": "increase of the efflux of daunomycin", "setting": "[3]", "result": 1.4, "unit": "fold"}, {"measurement": "Papp (B to A) of 3H-CsA", "setting": "[4]; 10 µM compound", "result": "4.07 ± 0.56 x 10^−6 cm/s"}, {"measurement": "Papp (B to A) of 3H-digoxin", "setting": "[4]; 10 µM compound", "result": "7.55 ± 0.46 x 10^−6 cm/s"}, {"measurement": "Papp (B to A) of 3H-CsA", "setting": "[4]; 30 µM compound", "result": "4.34 ± 0.29 x 10^−6 cm/s"}, {"measurement": "Papp (B to A) of 3H-digoxin", "setting": "[4]; 30 µM compound", "result": "6.95 ± 0.71 x 10^−6 cm/s"}, {"measurement": "Papp (B to A) of 3H-CsA", "setting": "[5]; 10 µM compound", "result": "5.34 ± 1.56 x 10^−6 cm/s"}, {"measurement": "Papp (B to A) of 3H-digoxin", "setting": "[5]; 10 µM compound", "result": "1.56 ± 0.43 x 10^−6 cm/s"}, {"measurement": "Papp (B to A) of 3H-CsA", "setting": "[5]; 30 µM compound", "result": "5.17 ± 0.92 x 10^−6 cm/s"}, {"measurement": "Papp (B to A) of 3H-digoxin", "setting": "[5]; 30 µM compound", "result": "1.57 ± 0.81 x 10^−6 cm/s"}, {"measurement": "Papp A to B direction", "setting": "[6]", "result": "2.35e-06", "unit": "cm/s"}, {"measurement": "Papp B to A direction", "setting": "[6]", "result": "1.04e-05", "unit": "cm/s"}, {"measurement": "fold increase of Papp B to A compared with A to B", "setting": "[6]", "result": "~4", "unit": "fold"}, {"measurement": "transport in the A to B direction", "setting": "[6]", "result": 0.18, "unit": "nmol/min"}, {"measurement": "transport in the B to A direction", "setting": "[6]", "result": 1.45, "unit": "nmol/min"}, {"measurement": "Papp (B to A) of 3H-CsA", "setting": "[7]; 10 µM compound", "result": "1.79 ± 0.16 x 10^−6 cm/s"}, {"measurement": "Papp (B to A) of 3H-digoxin", "setting": "[7]; 10 µM compound, 0.5 µM 3H-digoxin", "result": "2.37 ± 0.26 x 10^−6 cm/s"}, {"measurement": "Papp (B to A) of 3H-CsA", "setting": "[7]; 30 µM compound", "result": "1.52 ± 0.14 x 10^−6 cm/s"}, {"measurement": "Papp (B to A) of 3H-digoxin", "setting": "[7]; 30 µM compound, 0.5 µM 3H-digoxin", "result": "2.26 ± 0.29 x 10^−6 cm/s"}, {"measurement": "Papp (B to A) of 3H-CsA", "setting": "[7]; 100 µM compound", "result": "1.60 ± 0.45 x 10^−6 cm/s"}, {"measurement": "Papp (B to A) of 3H-digoxin", "setting": "[7]; 100 µM compound, 0.5 µM 3H-digoxin", "result": "2.93 ± 0.07 x 10^−6 cm/s"}, {"measurement": "lowest concentration with significant decrease of B to A transport of 0.5 µM 3H-CsA", "setting": "[7]; Caco-2 cells", "result": 10, "unit": "µM"}, {"measurement": "effect on digoxin transport", "setting": "[7]; Caco-2 cells, up to 30 μM, 0.5 µM 3H-digoxin", "result": "no significant effects"}]}]}
